Test results from patent US11033569B2, “Compounds,Compositions, and methods for the treatment of disease” (Sperovie Biosciences, Inc., priority 2016, dated 2021).
Entries after “also recorded” stand apart in the source; their conditions may differ.

How the values were obtained:
ISG54 ISRE-luc reporter = ISG54 ISRE-luc reporter activation in HEK293 (SZ14) cells, screen for STING agonists; type: cell-based; settings: digitonin buffer, 5 hours, read-out: IRF EC50
Description: ISG54 or NF-κβ activity was determined using the Steady-glo buffer system (Promega), and are expressed as EC50 values summarized in Table 3 below. […] This calculation is applicable for compounds with enzyme inhibition activity, as the baseline for an untreated sample may be set at 100% enzymatic activity, and therefore % inhibition is evaluated based on this 100% maximal basis. For these studies, the EC50 value relates to the concentration required to achieve a value 50% activity level above the untreated sample set at 0%.
Data are shown as fold induction over cells that received DMSO (compound carrier) alone as the mean, +/−standard deviation of duplicate wells per stimulant.

[1] = Oral maximum tolerated dose study in BALB/c mice; type: in vivo
Description: In order to investigate the maximum tolerated dosage of orally administered compounds, 15 female BALB/c mice between 7-10 weeks old were split into three treatment groups. Each group was administered either Cmd 1 or vehicle orally, according to the schedule outlined in Table 5 below. Cmd 1 was provided at 10 mL/kg (0.200 mL/20 g mouse).

[2] = system: 4T1.luc2 orthotopic murine breast carcinoma; assay: 4T1.luc2 orthotopic murine breast carcinoma model; type: in vivo, mice
Description: The efficacy of intraperitoneal administration of Cmd 1 was investigated in the 4T1.luc2 orthotopic murine breast carcinoma model. Thirty female BALB/c mice between 7-10 weeks old were randomized into four treatment groups based on Day 1 body weight, and the treatment was carried out according to the regimen outlined in Table 4 below. Cmd 1 was dissolved in saline and administered at 10 mL/kg (0.200 mL/20 g mouse), with a cell injection volume of 0.05 mL/mouse.
Each animal was monitored individually. The endpoint of the experiment was a tumor volume of […] or 45 days. Animals in Groups 1 and 2 were subjected to whole body bioluminescent imaging starting on Day 5 and once a week thereafter (Days 12, 19, 26, 33, and 41). At the endpoint, blood and tissue (lung, lymph nodes, spleen, and tumor) was analyzed for presence of metastases and biomarker (CD45, CD3, CD4, CD8, CD11b, CD25, Ly-6G, Ly-6C, FoxP3) levels.

[3] = system: CD8+ T cells, CD4+ T cells, and MDSCs; assay: Flow cytometry of immune cells in spleen, lymph nodes and blood; type: in vivo; settings: lymph nodes and blood on day 19, compared with vehicle
A20 lymphoma = assay: Syngeneic A20 lymphoma mouse model; type: in vivo; settings: for tumor growth upon re-challenge with tumor cells: compared with control
[4] = Immunohistochemistry on tissues from treated mice; type: in vivo
THP1 cells and PBMCs = assay: Caspase-Glo 3/7 apoptosis assay, THP1 vs. PBMCs; type: cell-based; settings: Lipofectamine LTX, 20 h
Description: The Apoptosis in THP1 cells and PBMCs was assessed using Caspase-Glo® 3/7 Assay (Promega). […] The caspase-3 and -7 activity was measured by using a proluminescent caspase-3/7 substrate that contains the tetrapeptide sequence DEVD which will be cleaved to release aminoluciferin, a substrate of luciferase used in the production of light. After incubation for 20 h, Apoptotic activity was assessed by measure levels of aminoluciferin. % Apoptosis was calculated from fold change in luminescence compared to DMSO treated sample.

Tumor cells = assay: Tumor cell growth inhibition (DAPI imaging, ImageXpress); type: cell-based; settings: once daily for 3 days, no lipofectamine
Description: Tumor cells in 96-well plate were treated once daily with Cmd 1 (no lipofectamine) or recombinant IFN (U-IFN) for 3 days. Cells were fixed with 1% paraformaldehyde and stained with DAPI. Cells were automatically imaged on ImageXpress and total number of survival cells were analyzed using MetaXpress software. Results are shown as total number of cells per group or % reduction calculated by normalizing to DMSO treated cells.

mouse macrophages = assay: Type I IFN signaling in mouse macrophages; type: cell-based
Description: Activity of secreted luciferase in cell culture supernatant was measured using Invivogen Quanti-luc. Data are shown as fold induction over DMSO treated cells (mean±standard deviation of triplicate wells per stimulant).

[5] = biological target: STING-HAQ polymorphic variant (Homo sapiens, UniProt Q86WV6, G230A/H232R/R293Q/R71H); assay: Activation of STING-HAQ polymorphic variant; type: cell-based; settings: major STING-HAQ polymorphic variant in humans
Chain of STING-HAQ polymorphic variant (Q86WV6 whole entry R71H/G230A/H232R/R293Q): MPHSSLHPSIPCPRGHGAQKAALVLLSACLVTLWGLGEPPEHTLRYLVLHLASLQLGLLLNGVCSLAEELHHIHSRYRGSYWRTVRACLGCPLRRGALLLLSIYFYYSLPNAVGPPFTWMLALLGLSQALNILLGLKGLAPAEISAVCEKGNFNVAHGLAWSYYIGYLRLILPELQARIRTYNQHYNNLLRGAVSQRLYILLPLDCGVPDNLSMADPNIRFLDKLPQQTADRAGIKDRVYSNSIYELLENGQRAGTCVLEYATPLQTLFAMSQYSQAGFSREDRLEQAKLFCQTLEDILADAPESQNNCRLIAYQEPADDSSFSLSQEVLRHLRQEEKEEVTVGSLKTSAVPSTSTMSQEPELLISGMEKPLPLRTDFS

[6] = system: STING-R238A and STING-Y167A; assay: STING loss-of-function mutants, STING-dependent IFN response; type: cell-based
[7] = system: mouse lymphoma cell line A20; assay: Apoptosis in mouse lymphoma cell line A20; type: cell-based; settings: A20 cells
[8] = system: mouse A20 B cell lymphoma tumor cells; assay: Inhibition of mouse A20 B cell lymphoma tumor cells; settings: FIGS. 48A-48D
STING [9] = biological target: T1, STING (Homo sapiens, UniProt Q86WV6); assay: STING dependence of cell death; type: cell-based
T1 construct: host or cells: SZ14 HEK293 cells stably expressing ISG54 ISRE-luc reporter
T1 sequence (Q86WV6 whole entry): as the sequence (Q86WV6 whole entry R71H/G230A/H232R/R293Q) above, with H71R, A230G, R232H, Q293R counted along it

STING [10] = biological target: T1, STING; assay: Gel shift assay; type: binding; settings: gel shift with fluorescent close structural analog of Cmd 1
[11] = system: A20 mouse B cell lymphoma tumor cells; assay: Apoptosis-related genes and ISGs in A20 mouse B cell lymphoma tumor cells; type: cell-based; settings: compared with 2′3′-cGAMP
[12] = system: IRF-type I and type III IFN response; assay: IRF-type I and type III IFN response; type: cell-based
[13] = system: panel of normal cell lines; assay: Cytotoxicity in a panel of normal cell lines; type: cell-based
[14] = 60 mg/kg po bid x 10 (first day 1 dose), n=5
[15] = oral, once daily or twice daily up to 60 mgkg/day

Compound CCCCCCCCCCOc1ccc(C(=O)Oc2ccc(CSP3(=O)OC[C@H]4O[C@@H](n5cnc6c(N)ncnc65)[C@H](F)[C@@H]4OP(=O)(O)OC[C@H]4O[C@@H](n5ccc(=O)[nH]c5=O)[C@H](F)[C@@H]4O3)cc2)cc1.N (stereo partly shown) [Cmd 1] has an EC50 (ISG54 ISRE-luc reporter) of under 50 nM, an NTR [1, 14] of 0 and an NTRm [1, 14] of 0. The TR [1, 14] was 0, the “BW Nadir” value ([1]; 60 mg/kg po bid x 10 (first day 1 dose), nadir day (11)) was −3.6% and the NTR ([1]; 60 mg/kg po qd x 10, n=5) was 0. For the same compound, the NTRm ([1]; 60 mg/kg po qd x 10, n=5) was 0, the TR ([1]; 60 mg/kg po qd x 10, n=5) was 0 and the adverse clinical signs [1, 15] was “no adverse clinical signs”. The tolerability [1, 15] was “well tolerated”, the “tumor growth / tumor volume” value ([2]; 10 mg/kg ip days 5, 7, 9, 11, 14, 18, compared with control) was “significant decline in tumor volume; also recorded: significant decrease in tumor growth” and the tumor growth ([2]; 4T1 breast cancer model, compared with vehicle (FIG. 75)) was “considerable tumor growth inhibition”. The “tumor growth (luminescence images)” value ([2]; intraperitoneal administration, compared with vehicle (FIG. 82)) was “considerable tumor growth inhibition”, the “induction of CD8+ T cells, CD4+ T cells, and MDSCs” value [3] was “increase in CD8+ T cells, CD4+ T cells, and MDSCs” and the survival rate (A20 lymphoma; combination therapy with cyclophosphamide) was “significantly improve the survival rate”. For the same compound, the tumor-free survival (A20 lymphoma; in combination with cyclophosphamide) was “results in tumor-free survival”, the survival rate (A20 lymphoma; monotherapy) was “significantly improve the survival rate” and the tumor growth (A20 lymphoma; monotherapy, compared with vehicle) was “potently inhibits lymphoma tumor growth; also recorded: considerable tumor growth inhibition; also recorded: inhibit mouse A20 B cell lymphoma tumor cells”. For the same compound, the “migration of CD8 T cells into the tumor site (immunohistochemistry)” value (A20 lymphoma; tumor tissue, vs vehicle) was “induces migration of CD8 T into the tumor site”, the “migration of NK cells into the tumor site (anti-granzyme B immunohistochemistry)” value (A20 lymphoma; tumor tissue, vs vehicle) was “induces migration of NK cells into the tumor site” and the “migration of macrophages into the tumor site (anti-F4/80 immunohistochemistry)” value (A20 lymphoma; tumor tissue, vs vehicle) was “induces migration of macrophages into the tumor site”. For the same compound, the “tumor growth upon re-challenge with tumor cells” value (A20 lymphoma; tumor-free mice after Cmd 1 + cyclophosphamide treatment) was “no tumor growth”, the “tumor growth upon re-challenge with tumor cells” value (A20 lymphoma; tumor-free mice after Cmd 1 treatment) was “no tumor growth” and the “correlation of anti-tumor activity with immune response” value [4] was “correlates with the induction of the innate and adaptive immune response”. For the same compound, the “selectivity of apoptosis induction THP1 vs. PBMCs” value (THP1 cells and PBMCs) was “selective induction of apoptosis”, the tumor cell growth (Tumor cells) was “Inhibits Tumor Cell Growth” and the “activity relative to natural STING ligand 3′,3′-cGAMP” value (mouse macrophages; mouse macrophages (FIG. 36B)) was “more active”. The “activation of type 1 IFN signaling” value (mouse macrophages; mouse macrophages, similar to 2′,3′-cGAMP) was “highly active”, the “activation of STING-HAQ variant” value [5] was “capable of activating” and the “dependence of STING activation on residues R238 and Y167” value [6] was “critical”. For the same compound, the apoptosis [7] was “induces apoptosis”, the “inhibition of tumor cells” value [8] was “inhibits mouse A20 B cell lymphoma tumor cells” and the “STING dependence of induction of cell death” value (STING [9]) was “STING-mediated”. For the same compound, the “binding to STING” value (STING [10]) was “binds to STING”, the BAX/BCL2 ratio [11] was “higher BAX/BCL2 ratio” and the “IRF-type I and type III IFN response” value [12] was “strongly activates”. For the same compound, the cytotoxicity [13] was “non-cytotoxic”.
